Bridge positions count the residues as written; N and C are the ends. Square brackets hold non-standard residues; d marks the D form. Peptide text beside a SMILES is read from it. * marks the point of attachment. 5TAMRA = CN(C)c1ccc2c(c1)Oc1cc(N(C)C)ccc1C21OC(=O)c2cc(C(=O)*)ccc21; 2Nal = N[C@@H](Cc1ccc2ccccc2c1)C(=O)O; Pen = CC(C)(S)[C@H](N)C(=O)O; Aib = CC(C)(N)C(=O)O
Experiments:
NL-IL23R with IL12Rβ1 = molecular target: T1, NL-IL23R with IL12Rβ1 (Homo sapiens, UniProt P42701+Q5VWK5); assay: P630-TMR NanoBRET binding assay, NL-IL23R with IL12Rβ1; settings: for BRET ratio, Specific (Mean) / BRET ratio, Non-specific (Mean): Fig. 2d, NL-IL23R with IL12Rβ1; for BRET ratio, Non-specific (Mean): with 10 μM P630; for BRET ratio with non-specific binding subtracted (Mean): Figure 2 sheet Panel f; for BRET ratio with non-specific binding subtracted (Mean) / % maximum BRET ratio / % of P630-TMR specific Bmax (Mean): NL-IL23R + IL12RB1; for % maximum BRET ratio / % of P630-TMR specific Bmax (Mean): Figure 2 sheet Panel g, Fig. 3d; for Mean NanoBRET binding signal (Figure 7 panel b): NL-IL23R +IL12RB1
T1 construct: expressed in transfected cells; host or cells: HEK293T (ATCC CRL-3216), transient transfection
Source text: (§1) A standard curve was used to predict the expression level of NanoLuc labelled receptor in each experiment (Supplementary Fig. 1).
(§2) Fig. 2 Creation and characterisation of a fluorescent cyclic peptide probe for IL23R. […] Data are normally mean ± SEM from five independent experiments. Details on absolute number of data points included for each concentration are provided in the associated Source Data file. In each individual saturation experiment triplicate determinations were normally made for total binding and duplicate measurements were made for non-specific binding.
(§3) Media was removed from white 96-well microplates containing transfected cells and replaced with fluoroprobe in the presence or absence of antagonist in 50 μL Hanks Balanced Salt Solution (HBSS) with 1 mg/mL BSA (Merck). After a 1-hour incubation at 37 °C without CO2, 5 μL of HBSS containing 77 μM furimizine was added to each well (final concentration 7 μM), the plate incubated for 5-minutes and the BRET signal measured using a PheraStar FS plate reader (BMG Labtech; data acquisition software version 5.41; MARS analysis software version 3.32) with a 450 ± 30 nm and >550 nm long pass filters.
(§4) Ligand binding data were fitted with the equation:2 BRETratio=Bmax[A]/([A]+KD)+(BA+C). Where ‘Bmax’ is the maximum specific binding BRET signal, ‘[A]’ is fluorescent probe concentration, ‘B’ is the non-specific binding component’s slope and ‘C’ is the Y intercept.
(§5) Specific binding data was generated by subtracting the BRET values gained in the presence of an excess of unlabelled probe from the BRET ratios gained in the absence of unlabelled probe. Specific binding data were fit using the equation:3 Y=Bmax[B]/(B+KD) where ‘Bmax’ is the maximum specific binding signal of the curve and ‘[B]’ is the concentration of fluorescent probe.

NL-IL23R = molecular target: T2, NL-IL23R (Homo sapiens, UniProt Q5VWK5); assay: P630-TMR NanoBRET binding assay, NL-IL23R alone; settings: Fig. 2c; NL-IL23R alone; P630-TMR 0.457247 nM
T2 construct: expressed in transfected cells; host or cells: HEK293T, transient transfection
T2 sequence (Q5VWK5 24-629): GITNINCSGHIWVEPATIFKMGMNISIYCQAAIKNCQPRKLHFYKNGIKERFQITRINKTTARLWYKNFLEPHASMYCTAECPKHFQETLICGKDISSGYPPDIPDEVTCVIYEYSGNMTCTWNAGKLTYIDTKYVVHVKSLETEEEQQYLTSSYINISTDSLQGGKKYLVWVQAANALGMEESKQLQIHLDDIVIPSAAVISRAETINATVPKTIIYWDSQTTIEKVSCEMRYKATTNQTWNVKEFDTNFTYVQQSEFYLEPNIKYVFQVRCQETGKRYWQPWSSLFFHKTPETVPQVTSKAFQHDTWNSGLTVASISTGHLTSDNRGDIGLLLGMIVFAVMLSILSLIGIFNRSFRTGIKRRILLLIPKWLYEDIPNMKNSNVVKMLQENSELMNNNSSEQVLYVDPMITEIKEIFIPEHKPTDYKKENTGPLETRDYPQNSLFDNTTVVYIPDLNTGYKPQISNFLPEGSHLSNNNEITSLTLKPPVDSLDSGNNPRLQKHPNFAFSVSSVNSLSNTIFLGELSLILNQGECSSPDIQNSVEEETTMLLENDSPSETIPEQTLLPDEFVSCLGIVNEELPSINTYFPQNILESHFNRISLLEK
Source text: as §1, §2, §3, §4, §5

`COc1ccc(C[C@H](NC(=O)[C@H]2NC(=O)[C@H](CCC(N)=O)NC(=O)[C@H](Cc3c[nH]c4ccccc34)NC(=O)[C@H]([C@@H](C)O)NC(=O)[C@H](CC(N)=O)NC(=O)[C@@H](NC(C)=O)C(C)(C)SSC2(C)C)C(=O)N[C@@H](Cc2ccc3ccccc3c2)C(=O)NC(C)(C)C(=O)N[C@@H](CCC(=O)O)C(=O)N[C@@H](CC(N)=O)C(=O)N[C@@H](CC(N)=O)C(=O)N[C@@H](CCCCNC(=O)c2ccc3c(c2)C(=O)OC32c3ccc(N(C)C)cc3Oc3cc(N(C)C)ccc32)C(N)=O)cc1` [P630-TMR] (Ac-[Pen]NTWQ[Pen]Y(Me)[2Nal][Aib]ENNK(5TAMRA)-NH2; disulfide 1-6) was tested, and the “BRET ratio, Specific (Mean)” value (NL-IL23R with IL12Rβ1; P630-TMR 0.457247 nM) was 0.2512, the “BRET ratio, Specific (Mean)” value (NL-IL23R with IL12Rβ1; P630-TMR 1.37174 nM) was 0.271 and the “BRET ratio, Specific (Mean)” value (NL-IL23R with IL12Rβ1; P630-TMR 4.11523 nM) was 0.315. The “BRET ratio, Specific (Mean)” value (NL-IL23R with IL12Rβ1; P630-TMR 12.3457 nM) was 0.4472, the “BRET ratio, Specific (Mean)” value (NL-IL23R with IL12Rβ1; P630-TMR 37.037 nM) was 0.6615 and the “BRET ratio, Specific (Mean)” value (NL-IL23R with IL12Rβ1; P630-TMR 111.111 nM) was 1.003. For the same molecule, the “BRET ratio, Specific (Mean)” value (NL-IL23R with IL12Rβ1; P630-TMR 1000 nM) was 1.323, the “BRET ratio, Specific (Mean)” value (NL-IL23R with IL12Rβ1; P630-TMR 3000 nM) was 1.6368 and the “BRET ratio, Non-specific (Mean)” value (NL-IL23R with IL12Rβ1; P630-TMR 0.457247 nM) was 0.2426. For the same molecule, the “BRET ratio, Non-specific (Mean)” value (NL-IL23R with IL12Rβ1; P630-TMR 1.37174 nM) was 0.2389, the “BRET ratio, Non-specific (Mean)” value (NL-IL23R with IL12Rβ1; P630-TMR 4.11523 nM) was 0.241 and the “BRET ratio, Non-specific (Mean)” value (NL-IL23R with IL12Rβ1; P630-TMR 12.3457 nM) was 0.2439. The “BRET ratio, Non-specific (Mean)” value (NL-IL23R with IL12Rβ1; P630-TMR 37.037 nM) was 0.2477, the “BRET ratio, Non-specific (Mean)” value (NL-IL23R with IL12Rβ1; P630-TMR 111.111 nM) was 0.2531 and the “BRET ratio, Non-specific (Mean)” value (NL-IL23R with IL12Rβ1; P630-TMR 1000 nM) was 0.3233. For the same molecule, the “BRET ratio, Non-specific (Mean)” value (NL-IL23R with IL12Rβ1; P630-TMR 3000 nM) was 0.4914, the “BRET ratio, Non-specific (Mean)” value (NL-IL23R with IL12Rβ1; P630-TMR […]) was 0.2709 and the “BRET ratio with non-specific binding subtracted (Mean)” value (NL-IL23R with IL12Rβ1; P630-TMR 0.457247 nM) was 0.01279. The “BRET ratio with non-specific binding subtracted (Mean)” value (NL-IL23R with IL12Rβ1; P630-TMR 1.37174 nM) was 0.03163, the “BRET ratio with non-specific binding subtracted (Mean)” value (NL-IL23R with IL12Rβ1; P630-TMR 4.11523 nM) was 0.07414 and the “BRET ratio with non-specific binding subtracted (Mean)” value (NL-IL23R with IL12Rβ1; P630-TMR 12.3457 nM) was 0.203. The “BRET ratio with non-specific binding subtracted (Mean)” value (NL-IL23R with IL12Rβ1; P630-TMR 37.037 nM) was 0.4147, the “BRET ratio with non-specific binding subtracted (Mean)” value (NL-IL23R with IL12Rβ1; P630-TMR 111.111 nM) was 0.7498 and the “BRET ratio with non-specific binding subtracted (Mean)” value (NL-IL23R with IL12Rβ1; P630-TMR 1000 nM) was 1.0032. The “BRET ratio with non-specific binding subtracted (Mean)” value (NL-IL23R with IL12Rβ1; P630-TMR 3000 nM) was 1.107, the “% maximum BRET ratio / % of P630-TMR specific Bmax (Mean)” value (“% maximum BRET ratio / %” below) (NL-IL23R with IL12Rβ1; P630-TMR 0.457247 nM) was 1.58% and the “% maximum BRET ratio / %” value (NL-IL23R with IL12Rβ1; P630-TMR 1.37174 nM) was 3.558%. For the same molecule, the “% maximum BRET ratio / %” value (NL-IL23R with IL12Rβ1; P630-TMR 4.11523 nM) was 8.249%, the “% maximum BRET ratio / %” value (NL-IL23R with IL12Rβ1; P630-TMR 12.3457 nM) was 22.4565% and the “% maximum BRET ratio / %” value (NL-IL23R with IL12Rβ1; P630-TMR 37.037 nM) was 45.1459%. For the same molecule, the “% maximum BRET ratio / %” value (NL-IL23R with IL12Rβ1; P630-TMR 111.111 nM) was 80.9844%, the “% maximum BRET ratio / %” value (NL-IL23R with IL12Rβ1; P630-TMR 1000 nM) was 106.516% and the “% maximum BRET ratio / %” value (NL-IL23R with IL12Rβ1; P630-TMR 3000 nM) was 100.024%. The “Mean NanoBRET binding signal (Figure 7 panel b)” value (“Mean NanoBRET binding signal” below) (NL-IL23R with IL12Rβ1; [P630-TMR] 0.8 nM) was -0.0001896, the “Mean NanoBRET binding signal” value (NL-IL23R with IL12Rβ1; [P630-TMR] 4 nM) was 0.1611 and the “Mean NanoBRET binding signal” value (NL-IL23R with IL12Rβ1; [P630-TMR] 20 nM) was 0.6859. For the same molecule, the “Mean NanoBRET binding signal” value (NL-IL23R with IL12Rβ1; [P630-TMR] 100 nM) was 1.691, the “Mean NanoBRET binding signal” value (NL-IL23R with IL12Rβ1; [P630-TMR] 500 nM) was 2.556 and the “Mean NanoBRET binding signal” value (NL-IL23R with IL12Rβ1; [P630-TMR] 2000 nM) was 2.7354. For the same molecule, the Kd (NL-IL23R with IL12Rβ1; NL-IL23R and IL12Rβ1, mean ± SEM) was 51.1 ± 7.3 nM and the “BRET ratio, Specific (Mean)” value (NL-IL23R) was 0.2582.
